Source: paper PMC4085797, “Synthetic Inositol Phosphate Analogs Reveal that PPIP5K2 Has a Surface-Mounted Substrate Capture Site that Is a Target for Drug Discovery” (Chemistry & Biology, 2014)

Columns and labels:
Assay type in all cases: biochemical
[1] = molecular target: T1, PPIP5K2^KD (kinase domain of human PPIP5K2) (Homo sapiens, UniProt O43314); experiment: HPLC analysis of 1,5-[PP]2-[3H]InsP4 dephosphorylation; conditions: 2 μM analog, 200 nM 1,5-[PP]2-[3H]InsP4, 20 min; rate in absence 192
T1 construct: The kinase domain of human PPIP5K2 (PPIP5K2^KD; residues 1–366); made in house
T1 sequence (O43314 1-366): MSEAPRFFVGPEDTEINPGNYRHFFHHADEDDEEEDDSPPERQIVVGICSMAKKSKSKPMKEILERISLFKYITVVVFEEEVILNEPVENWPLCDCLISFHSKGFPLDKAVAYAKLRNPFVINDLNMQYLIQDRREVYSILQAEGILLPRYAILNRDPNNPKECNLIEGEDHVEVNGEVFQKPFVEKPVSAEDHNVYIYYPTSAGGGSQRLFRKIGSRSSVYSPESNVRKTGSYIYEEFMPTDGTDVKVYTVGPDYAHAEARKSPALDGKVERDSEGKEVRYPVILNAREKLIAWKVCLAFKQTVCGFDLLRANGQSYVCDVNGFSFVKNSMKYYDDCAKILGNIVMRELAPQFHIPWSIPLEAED
Protocol: (§1) The initial InsP6 concentration was either 500 nM, 70 nM, or 40 nM. Various concentrations of 2,5-di-O-Bn-InsP4 were present as indicated. Radioactivity was assessed using an in-line Flo1 detector. The ADP-driven dephosphorylation of 100 nM 1,5-[PP]2-InsP4 by PPIP5K2^KD was usually determined by a luminescence-based assay of ATP accumulation ([Riley et al., 2012; Weaver et al., 2013]). The IC50 values were determined using GraphPad Prism v6.02 (n ≥ 3). In some experiments, 1,5-[PP]2-[^3H]InsP4 dephosphorylation by PPIP5K2^KD was assayed in 50 μl buffer containing 50 mM KCl, 20 mM HEPES pH 7.0, 7 mM MgSO4, 5 mM ADP, 1 mM EDTA. Reactions were then quenched, neutralized, and analyzed with HPLC using a Partisphere SAX column ([Weaver et al., 2013]); 1 ml fractions were collected for liquid scintillation spectrometry. The ATPase activity of PPIP5K2^KD (10–270 μg/ml) was assayed from Pi release following incubation at 37°C for 120–180 min in 20 μl reaction mixtures containing 20 mM Tris/HCl, pH 7.5, 10 mM ATP, 100 mM KCl, 0.1 mM EDTA, and 13 mM MgCl2.
S1, related to Figure 4. 2,5-Di-O-Bn-InsP4 (10) inhibits both ADP-driven [PP]2-
[3H]InsP4 dephosphorylation and ATP-driven [3H]InsP6 phosphorylation by PPIP5K2 […]
Bn-InsP4 (10) (panel C). After 20 min reactions were quenched and analyzed by HPLC […]
O-Bn-InsP4 (10) were calculated to be 192 and 95 nmol/mg protein/min, respectively. […]

[2] = molecular target: T2, human PPIP5K2^KD (Homo sapiens, UniProt O43314); experiment: HPLC assay of [3H]InsP6 phosphorylation (InsP6 kinase activity)
T2 construct: The kinase domain of human PPIP5K2 (PPIP5K2^KD; residues 1–366); made in house
T2 sequence (O43314 1-366): T1 sequence (O43314 1-366)
Protocol: as §1
S1, related to Figure 4. 2,5-Di-O-Bn-InsP4 (10) inhibits both ADP-driven [PP]2-[3H]InsP4 dephosphorylation and ATP-driven [3H]InsP6 phosphorylation by PPIP5K2 […]
E:Incubation buffers (see Methods) contained 500 nM [3H]InsP6 plus either 12.5 ng PPIP5K2 KD (panel D) or 30 ng PPIP5K2KD plus 1.5 μM 2,5-di-O-Bn-InsP4 (10) (panel E). Reactions rates in the absence and presence of 2,5-di-O-Bn-InsP4 (10) were calculated to be 52 and 21 nmol/mg protein/min, respectively. […]

[3] = molecular target: T3, human IP6K2 (Homo sapiens, UniProt Q9UHH9); experiment: HPLC assay of [3H]InsP6 phosphorylation by IP6K2; conditions: [InsP6] = 500 nM; data not shown; read-out: IC50, inhibition of IP6K2 activity
T3 construct: Full-length human IP6K2, the kinase domain of human PPIP5K2; made in house
T3 sequence (Q9UHH9 1-426): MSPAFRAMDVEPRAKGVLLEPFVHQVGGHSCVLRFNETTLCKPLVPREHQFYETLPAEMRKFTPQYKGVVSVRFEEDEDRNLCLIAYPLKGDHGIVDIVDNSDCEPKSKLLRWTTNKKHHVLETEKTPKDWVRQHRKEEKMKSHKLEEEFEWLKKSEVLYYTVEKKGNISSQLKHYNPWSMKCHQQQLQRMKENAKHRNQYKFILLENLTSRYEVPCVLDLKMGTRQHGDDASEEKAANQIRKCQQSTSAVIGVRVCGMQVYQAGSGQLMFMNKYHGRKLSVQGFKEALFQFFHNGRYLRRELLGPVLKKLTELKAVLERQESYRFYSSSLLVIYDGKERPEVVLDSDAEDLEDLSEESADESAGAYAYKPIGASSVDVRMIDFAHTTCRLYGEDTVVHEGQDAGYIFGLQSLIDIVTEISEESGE
Protocol: as §1

For `O=P(O)(O)O[C@@H]1[C@@H](OCc2ccccc2)[C@H](OP(=O)(O)O)[C@@H](OP(=O)(O)O)[C@@H](OCc2ccccc2)[C@H]1OP(=O)(O)O` [compound 10, 2,5-di-O-Bn-InsP4], the “reaction rate of [PP]2-[3H]InsP4 dephosphorylation in the presence of analog” value [1] was 95 nmol/mg protein/min, the “reaction rate of [3H]InsP6 phosphorylation in the presence of analog” value ([2]; 1.5 μM analog, 500 nM [3H]InsP6, rate in absence 52) was 21 nmol/mg protein/min and the “nature of inhibition of InsP6 kinase activity” value ([2]; Dixon plot, Figure 4C) was “competitive”. It also gave a Ki ([2]; Figure 4C, read-out: Ki, inhibition of InsP6 kinase activity (Dixon plot)) of 0.24 µM, an IC50 ([2]; [InsP6] = 500 nM, read-out: IC50, inhibition of InsP6 phosphorylation) of 1 µM and an IC50 [3] of 63 µM.
